Test results from article PMC4648982 (Chemistry Central Journal, 2015).
“Also recorded” adds a separate entry of the source. Counter-ions that a name gives are not always drawn.

Biological target: jack bean urease (Canavalia ensiformis, UniProt P07374)
Assay: biochemical
Conditions: for urease inhibitory activity in words: in vitro assay, authors' verbal grading
Protocol: Reaction mixture comprising of 25μL of enzyme (jack bean urease) (1 unit/well) solution and 55 μL of phosphate buffers (4 mM) containing 100 mM urea were incubated with 5 μL of test compounds dissolved in methanol (0.5 mM concentration) at 30 °C for 15 min in 96-well plates. Urease activity was determined by measuring ammonia production using the indophenol method as described by Weather burn. Briefly, 45 μl each phenol reagent (1 % w/v phenol and 0.005 % w/v sodium nitroprussside) and 70 μL of alkali reagent(0.5 % w/v NaOH and 0.1 % active chloride NaOCl) were added to each well. The increasing absorbance at 630 nm was measured afther 50 min, using a microplate reader (Molecular Device, USA). All reactions were performed in triplicate in a final volume of 200 μL. The results (change in absorbance per min) were processed by using softMax Pro software (molecular Device, USA). The entire assays were performed at pH 6.8. Percentage inhibitions were calculated from the formula 100 − (ODtestwell/ODcontrol) × 100. Thiourea was used as the standard inhibitor of urease.

Chain of jack bean urease (P07374 whole entry, looked up): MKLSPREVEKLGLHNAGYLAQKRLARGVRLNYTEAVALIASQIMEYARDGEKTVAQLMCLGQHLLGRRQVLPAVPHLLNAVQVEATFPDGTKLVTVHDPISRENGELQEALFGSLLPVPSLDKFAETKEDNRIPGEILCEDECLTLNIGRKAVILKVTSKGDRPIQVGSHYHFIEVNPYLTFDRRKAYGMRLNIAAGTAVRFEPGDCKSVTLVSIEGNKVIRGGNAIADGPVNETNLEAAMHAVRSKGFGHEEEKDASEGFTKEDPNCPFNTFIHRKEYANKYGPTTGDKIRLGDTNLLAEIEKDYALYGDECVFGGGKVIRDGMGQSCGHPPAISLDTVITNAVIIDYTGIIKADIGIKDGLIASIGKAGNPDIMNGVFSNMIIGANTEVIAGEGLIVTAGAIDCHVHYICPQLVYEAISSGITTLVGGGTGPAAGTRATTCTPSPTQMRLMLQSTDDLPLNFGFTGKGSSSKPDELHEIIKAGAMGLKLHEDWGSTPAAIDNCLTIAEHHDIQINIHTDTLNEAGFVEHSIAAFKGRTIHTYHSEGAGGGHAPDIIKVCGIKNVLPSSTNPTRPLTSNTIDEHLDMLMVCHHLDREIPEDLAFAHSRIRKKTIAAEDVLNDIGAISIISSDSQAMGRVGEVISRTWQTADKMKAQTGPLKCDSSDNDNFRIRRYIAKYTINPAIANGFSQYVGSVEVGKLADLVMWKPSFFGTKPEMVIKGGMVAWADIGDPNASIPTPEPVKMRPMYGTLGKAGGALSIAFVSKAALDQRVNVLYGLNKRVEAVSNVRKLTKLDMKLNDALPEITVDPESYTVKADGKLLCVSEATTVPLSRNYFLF

Row | Compound | IC50 [µM] | urease inhibitory activity in words
1 | COc1ccc(C(C2=C(O)CC(C)(C)CC2=O)C2=C(O)CC(C)(C)CC2=O)cc1 [Compound 5e, 2-((2-Hydroxy-4,4-dimethyl-6-oxocyclohex-1-en-1-yl)(4-methoxyphenyl)methyl)-5,5-dimethyl-3-oxocyclohex-1-enolate diethylaminium salt] | 39.8 ± 0.75 | 
2 | CC1(C)CC(=O)C(C(C2=C(O)CC(C)(C)CC2=O)c2ccc([N+](=O)[O-])cc2)=C(O)C1 [Compound 5f, 2-((2-Hydroxy-4,4-dimethyl-6-oxocyclohex-1-en-1-yl)(4-nitrophenyl)methyl)-5,5-dimethyl-3-oxocyclohex-1-enolate diethylaminium salt] | 106 ± 1.49 | inactivity
3 | CC1(C)CC(=O)C(C(C2=C(O)CC(C)(C)CC2=O)c2c(Cl)cccc2Cl)=C(O)C1 [Compound 5g, 2-((2,6-Dichlorophenyl)(2-hydroxy-4,4-dimethyl-6-oxocyclohex-1-en-1-yl)methyl)-5,5-dimethyl-3-oxocyclohex-1-enolate diethylaminium salt] | 170.7 ± 1.55 | least active; also recorded: inactivity
4 | CC1(C)CC(=O)C(C(C2=C(O)CC(C)(C)CC2=O)c2cccc([N+](=O)[O-])c2)=C(O)C1 [Compound 5h, 2-((2-Hydroxy-4,4-dimethyl-6-oxocyclohex-1-en-1-yl)(3-nitrophenyl)methyl)-5,5-dimethyl-3-oxocyclohex-1-enolate diethylaminium salt] | 49 ± 0.55 | good urease inhibitory activity
5 | CC1(C)CC(=O)C(C(C2=C(O)CC(C)(C)CC2=O)c2ccccc2[N+](=O)[O-])=C(O)C1 [Compound 5i, 2-((2-Hydroxy-4,4-dimethyl-6-oxocyclohex-1-en-1-yl)(2-nitrophenyl)methyl)-5,5-dimethyl-3-oxocyclohex-1-enolate diethylaminium salt] | 210.1 ± 0.29 | inactivity
6 | CC1(C)CC(=O)C(C(C2=C(O)CC(C)(C)CC2=O)c2ccc(C=O)cc2)=C(O)C1 [Compound 5j, 2-((4-Formylphenyl)(2-hydroxy-4,4-dimethyl-6-oxocyclohex-1-en-1-yl)methyl)-5,5-dimethyl-3-oxocyclohex-1-enolate diethylaminium salt] | 72.6 ± 0.59 | 
7 | CC1(C)CC(=O)C(C(C2=C(O)CC(C)(C)CC2=O)c2ccc(O)cc2)=C(O)C1 [Compound 5k, 2-((2-Hydroxy-4,4-dimethyl-6-oxocyclohex-1-en-1-yl)(4-hydroxyphenyl)methyl)-5,5-dimethyl-3-oxocyclohex-1-enolate diethylaminium salt] | 43.8 ± 0.33 | good urease inhibitory activity
8 | Cn1c(O)c(C(c2ccc(C=O)cc2)c2c(O)[nH]c(=O)[nH]c2=O)c(=O)n(C)c1=O (centres unmarked) [Compound 5l, 4-((6-Hydroxy-1,3-dimethyl-2,4-dioxo-1,2,3,4-tetrahydropyrimidin-5-yl)(6-hydroxy-2,4-dioxo-1,2,3,4-tetrahydropyrimidin-5-yl)methyl)benzaldehyde diethylaminium salt] | 17.2 ± 0.44 | most active
9 | CC1(C)CC(=O)C(C(c2ccc(Cl)cc2)c2c(O)[nH]c(=O)[nH]c2=O)=C(O)C1 (centres unmarked) [Compound 5m, 5-((4-Chlorophenyl)(2-hydroxy-4,4-dimethyl-6-oxocyclohex-1-en-1-yl)methyl)-2,6-dioxo-1,2,3,6-tetrahydropyrimidin-4-olate diethylaminium salt] | 65.9 ± 0.61 | 
10 | CC1(C)CC(=O)C(C(c2ccccc2)c2c(O)[nH]c(=O)[nH]c2=O)=C(O)C1 (centres unmarked) [Compound 5n, 5-((2-Hydroxy-4,4-dimethyl-6-oxocyclohex-1-en-1-yl)(phenyl)methyl)-2,6-dioxo-1,2,3,6-tetrahydropyrimidin-4-olate diethylaminium salt] | 23.7 ± 0.57 | active
11 | CC1(C)CC(=O)C(C(c2ccc(Br)cc2)c2c(O)[nH]c(=O)[nH]c2=O)=C(O)C1 (centres unmarked) [Compound 5o, 5-((4-Bromophenyl)(2-hydroxy-4,4-dimethyl-6-oxocyclohex-1-en-1-yl)methyl)-2,6-dioxo-1,2,3,6-tetrahydropyrimidin-4-olate diethylaminium salt] | 34.6 ± 0.79 | 
12 | Cc1ccc(C(C2=C(O)CC(C)(C)CC2=O)c2c(O)[nH]c(=O)[nH]c2=O)cc1 (centres unmarked) [Compound 5p, 5-((2-Hydroxy-4,4-dimethyl-6-oxocyclohex-1-en-1-yl)(p-tolyl)methyl)-2,6-dioxo-1,2,3,6-tetrahydropyrimidin-4-olate diethylaminium salt] | 27.4 ± 0.54 | 
13 | CC1(C)CC(=O)C(C(c2ccc(C=O)cc2)c2c(O)[nH]c(=O)[nH]c2=O)=C(O)C1 (centres unmarked) [Compound 5q, 2-((4-Formylphenyl)(6-hydroxy-2,4-dioxo-1,2,3,4-tetrahydropyrimidin-5-yl)methyl)-5,5-dimethyl-3-oxocyclohex-1-enolate diethylaminium salt] | 41.6 ± 0.41 | 
14 | CC1(C)CC(=O)C(C(c2ccc3ccccc3c2)c2c(O)[nH]c(=O)[nH]c2=O)=C(O)C1 (centres unmarked) [Compound 5r, 5-((2-Hydroxy-4,4-dimethyl-6-oxocyclohex-1-en-1-yl)(naphthalen-2-yl)methyl)-2,6-dioxo-1,2,3,6-tetrahydropyrimidin-4-olate diethylaminium salt] | 82.8 ± 0.72 | 
15 | CC1(C)CC(=O)C(C(C2=C(O)CC(C)(C)CC2=O)c2ccc3ccccc3c2)=C(O)C1 [Compound 5s, 2-((2-Hydroxy-4,4-dimethyl-6-oxocyclohex-1-en-1-yl)(naphthalen-2-yl)methyl)-5,5-dimethyl-3-oxocyclohex-1-enolate diethylaminium salt] | 123.2 ± 0.37 | inactivity
